Five compounds from article PMC10893631, “Receptor-based pharmacophore modeling, molecular docking, synthesis and biological evaluation of novel VEGFR-2, FGFR-1, and BRAF multi-kinase inhibitors” (BMC Chemistry, 2024) can be followed below.

Usually GI50 stands for the concentration at which growth is held to half of that of the control. Low values mean more potent growth inhibition, high ones less potent growth inhibition.

Read-outs that look alike come from different tables or passages of the source.

One experiment addresses T1, VEGFR-2 (Homo sapiens, UniProt P35968).
T1 construct: purchased BPS Biosciences 40325
The experiment can be described thus: VEGFR-2 kinase assay kit (BPS), Kinase-Glo Max luminescence. The class given is biochemical. The conditions noted are these: VEGFR-2, single dose 10 µM, duplicate, mean ± SD. The procedure:
2. Biochemical kinase assay procedure
The inhibitory activity against different kinases was determined using kinase kits […]
from BPS Biosciences and kinase-Glo Max luminescence kinase assay kit (Promega).
The assay was carried out according to the protocol provided by the manufacturer. A stock solution of the synthesized derivatives in 100% DMSO was prepared. Subsequently, the compounds were diluted to 10% DMSO.
A master mixture was prepared according to the number of wells. For VEGFR-2 and FGFR-1 biochemical assays each well include 6 μl of 5x Kinase Buffer 1 + 1 μl of 500 μM ATP + 1 μl of PTK Substrate (Poly-Glu,Tyr 4:1) (10 mg/ml) + 17 μl of distilled water. For BRAF assay each well include 6 μl of 5x Kinase Buffer 1 + 1 μl of ATP (500 μM) + 10 μl of 5X Raf substrate + 8 μl of distilled water. 1x Kinase buffer 1 was prepared by mixing 600 μl of 5x Kinase Buffer 1 with 2400 μl water to give 3 mL. Kinases were thawed on ice and were diluted with 1x Kinase Buffer 1.
To start the biochemical reaction, 25 µL of the master mixture was added to each well in 96 well plate. 5 µL of 10% DMSO was added to positive control wells and blank wells. 5 µL of diluted inhibitor was added to each well labelled with the test inhibitor so that the final concentration of DMSO is 1% in all reactions. Then 20 µL of (1 ng / μl) in case of VEGFR-2 and FGFR-1 or (2.5 ng/μl) in case of BRAF in 1x kinase buffer was added to positive control wells and wells labelled with the inhibitor, while 20 µL 1x kinase buffer 1 was added to the […]
The plate was incubated at 30 °C for 45 min. Subsequently, 50 μl of Kinase-Glo Max luminescence reagent was added to each well and the plate was covered with aluminum foil and incubated at room temperature 15 min. Finally, the luminescence was recorded using multimode microplate reader. Kinase activity assays were performed in duplicate at each […]
The luminescence data were analyzed as follows. The difference between luminescence intensities in the absence of kinase (Lut) and in the presence of kinase (Luc) was defined as 100 % activity (Lut – Luc). Using luminescence signal (Lu) in the presence of the compound, % activity was calculated as: % activity = {(Lut - Lu)/(Lut - Luc)}×100%. The […]
concentration of the test compounds required to reduce the kinase activity by 50% was determined from dose-response curves and recorded as their IC50. […]
On the technique in general: In Kinase-Glo more light means more ATP remaining.

Experiment [1] has as its system NCI panel of 60 tumor cell lines. The experiment in a line: NCI SRB growth inhibition, whole panel mean (single dose 10 µM / five-dose). The class given is cell-based, human. As to conditions: Homo sapiens; for GI50: mean over NCI cancer cell lines, five-dose. The procedure:
(§1) Screening of cytotoxic activity against a panel of sixty human tumor cell lines The selected compounds by NCI were evaluated for their anticancer activity in a two- stage process. […] Then, the output from the single dose screen is reported as a mean graph. […] Assay protocol. […] For a typical screening experiment, cells are inoculated into 96 well microtiter plates in 100 µL at plating densities ranging from 5000 to 40,000 cells/well depending on the doubling time of individual cell lines. […] After 24 h, two plates of each cell line are fixed in situ with TCA, to represent a measurement of the cell population for each cell line at the time of drug addition (Tz). The experimental drugs are solubilized in dimethyl sulfoxide at 400-fold the desired final maximum test concentration and stored frozen prior to use. At the time of drug addition, an aliquot of frozen concentrate is thawed and diluted to twice the desired final maximum test concentration with complete medium containing 50 µg/mL gentamicin. Additional four, 10-fold or ½ log serial dilutions are made to provide a total of five drug concentrations plus control. Aliquots of 100 mL of these different drug dilutions are added to the appropriate microtiter wells already containing […] of medium, resulting in the required final drug concentrations. […] For adherent cells, the assay is terminated by the addition of cold TCA. […] The supernatant is discarded, and the plates are washed five times with tap water and air dried. Sulforhodamine B (SRB) solution ([…]) at 0.4% (w/v) in 1% acetic acid is added to each well, and plates are incubated for 10 min at room temperature. After staining, unbound dye is removed by washing five times with 1% acetic acid and the plates are air dried. […] Using the seven absorbance measurements [time zero, (Tz), control growth, (C), and test growth in the presence of drug at the five concentration levels (Ti)], the percentage growth is calculated at each of the drug concentrations levels. Percentage growth inhibition is calculated as: [(Ti Tz)/(C–Tz)] x 100 for concentrations for which Ti>/=Tz and [(Ti-Tz)/Tz] x 100 for concentrations for which Ti < Tz. Three dose response parameters are calculated for each experimental agent. […] The drug concentration resulting in total growth inhibition (TGI) is calculated from Ti = Tz. […] Values are calculated for each of these three parameters if the level of activity is reached; however, if the effect is not reached or is exceeded, the value for that parameter is expressed as greater or less than the maximum or minimum concentration tested.

In a further experiment the test system is COLO 205. The experiment in a line: NCI SRB growth inhibition (single dose 10 µM / five-dose). The conditions noted are these: Homo sapiens; for GI50: COLO 205, Colon cancer, five-dose. The class given is cell-based, human. The procedure: as §1
A further experiment deals with DU-145. The description is as above. The class given is cell-based, human. The conditions noted are these: Homo sapiens; for inhibition at 10 µM: DU-145 (Prostate cancer), read-out: GI%; for GI50: DU-145, Prostate cancer, five-dose. The procedure:
as §1

A further experiment concerns EKVX. The description is as above. The class given is cell-based, human. As to conditions: Homo sapiens; for inhibition at 10 µM: EKVX (Non-small cell lung cancer), read-out: GI%; for GI50: EKVX, Non-small cell lung cancer, five-dose. As for the experimental part:
as §1

For the next experiment, the system named is HOP-92. The experiment is described as above. The class given is cell-based, human. As to conditions: Homo sapiens; for inhibition at 10 µM: HOP-92 (Non-small cell lung cancer), read-out: GI%. The procedure:
as §1

The test system of the next experiment is KM12. The description is as above. The class given is cell-based, human. The conditions noted are these: Homo sapiens; for inhibition at 10 µM: KM12 (Colon cancer), read-out: GI%; for GI50: KM12, Colon cancer, five-dose. The procedure: as §1
The next experiment deals with MDA-MB-468. The experiment is described as above. As to conditions: Homo sapiens; for inhibition at 10 µM: MDA-MB-468 (Breast cancer), read-out: GI%; for GI50: MDA-MB-468, Breast cancer, five-dose. The class given is cell-based, human. As for the experimental part:
as §1

The subject of another experiment is NCI-H460. Described as above. The experiment is classed as cell-based, human. As to conditions: Homo sapiens; for inhibition at 10 µM: NCI-H460 (Non-small cell lung cancer), read-out: GI%; for GI50: NCI-H460, Non-small cell lung cancer, five-dose. The procedure:
as §1

The subject of a further experiment is NCI-H522. The experiment is described as above. The class given is cell-based, human. As to conditions: Homo sapiens; for inhibition at 10 µM: NCI-H522 (Non-small cell lung cancer), read-out: GI%; for GI50: NCI-H522, Non-small cell lung cancer, five-dose. As for the experimental part:
as §1

A further experiment relates to SN12C. Described as above. The class given is cell-based, human. As to conditions: Homo sapiens; for GI50: SN12C, Renal cancer, five-dose; for inhibition at 10 µM: SN12C (Renal cancer), read-out: GI%. The procedure:
as §1

A further experiment relates to SNB-75. Described as above. The experiment is classed as cell-based, human. As to conditions: Homo sapiens; for inhibition at 10 µM: SNB-75 (CNS cancer), read-out: GI%; for GI50: SNB-75, CNS cancer, five-dose. As for the experimental part: as §1
The test system of another experiment is U251. The experiment is described as above. The class given is cell-based, human. The conditions noted are these: Homo sapiens, U-251; for inhibition at 10 µM: U251 (CNS cancer), read-out: GI%; for GI50: U251, CNS cancer, five-dose. As for the experimental part:
as §1

[2] abbreviates: mean over NCI 60 cell lines, > 100% = lethal effect, read-out: mean growth inhibition % (GI%).
Where [3] appears, read: mean over NCI panel of 60 tumor cell lines, read-out: Mean growth inhibition %.

T1 sequence (P35968 20-1356): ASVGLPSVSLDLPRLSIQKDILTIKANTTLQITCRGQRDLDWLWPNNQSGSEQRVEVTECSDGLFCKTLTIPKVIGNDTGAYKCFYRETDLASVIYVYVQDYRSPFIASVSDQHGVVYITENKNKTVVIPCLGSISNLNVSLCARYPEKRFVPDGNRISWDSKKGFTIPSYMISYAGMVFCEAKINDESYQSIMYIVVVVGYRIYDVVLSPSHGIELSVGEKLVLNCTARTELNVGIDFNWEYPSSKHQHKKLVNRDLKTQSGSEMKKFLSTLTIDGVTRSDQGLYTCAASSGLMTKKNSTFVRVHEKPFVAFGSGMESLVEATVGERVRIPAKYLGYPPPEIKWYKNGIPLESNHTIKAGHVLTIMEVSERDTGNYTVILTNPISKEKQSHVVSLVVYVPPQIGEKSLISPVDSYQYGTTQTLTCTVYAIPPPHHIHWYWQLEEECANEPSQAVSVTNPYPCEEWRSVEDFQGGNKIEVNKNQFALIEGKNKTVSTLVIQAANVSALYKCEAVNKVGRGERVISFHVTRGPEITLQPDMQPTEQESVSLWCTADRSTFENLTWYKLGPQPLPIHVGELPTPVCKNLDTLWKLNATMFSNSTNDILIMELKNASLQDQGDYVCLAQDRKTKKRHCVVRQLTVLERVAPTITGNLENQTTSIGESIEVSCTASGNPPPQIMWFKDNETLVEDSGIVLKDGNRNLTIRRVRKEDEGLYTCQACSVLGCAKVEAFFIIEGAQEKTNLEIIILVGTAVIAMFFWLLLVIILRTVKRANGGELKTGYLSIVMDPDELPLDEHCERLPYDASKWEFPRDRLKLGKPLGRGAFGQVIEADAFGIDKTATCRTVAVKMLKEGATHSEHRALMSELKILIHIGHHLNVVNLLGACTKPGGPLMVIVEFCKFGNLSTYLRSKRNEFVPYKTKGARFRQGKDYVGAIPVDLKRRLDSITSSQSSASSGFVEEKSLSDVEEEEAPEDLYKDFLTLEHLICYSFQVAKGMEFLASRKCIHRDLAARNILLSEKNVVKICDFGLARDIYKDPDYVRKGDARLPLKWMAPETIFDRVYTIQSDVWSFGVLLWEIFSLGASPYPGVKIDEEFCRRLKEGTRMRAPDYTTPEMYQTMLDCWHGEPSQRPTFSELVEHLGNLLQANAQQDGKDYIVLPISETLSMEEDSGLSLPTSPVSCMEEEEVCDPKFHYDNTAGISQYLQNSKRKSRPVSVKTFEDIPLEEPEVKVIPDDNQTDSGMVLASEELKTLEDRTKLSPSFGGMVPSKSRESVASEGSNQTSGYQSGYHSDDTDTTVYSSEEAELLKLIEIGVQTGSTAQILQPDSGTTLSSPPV

As for `COc1ccc(-c2nc3cc(C(=O)NN=Cc4cccc(OC)c4)ccc3[nH]2)cc1` [8j, N'-(3-Methoxybenzylidene)-2-(4-methoxyphenyl)-1H-benzo[d]imidazole-5-carbohydrazide], the inhibition at 10 µM against VEGFR-2 was 15.7 ± 1.41%; in experiment [1] (setting [2]), 100%; in experiment [1] (setting [3]), above 100%; in the experiment with COLO 205 (COLO 205 (Colon cancer), 10 µM, read-out: GI%) it was above 100%; in the experiment on DU-145, above 100%; with EKVX, above 100%. For the same compound, the inhibition at 10 µM is above 100% with HOP-92; above 100% in the experiment on KM12; above 100% in the experiment with MDA-MB-468; above 100% in the experiment with NCI-H460; 89.7% with NCI-H522; above 100% with SNB-75. Moreover, the inhibition at 10 µM with U251 was above 100%. For the same compound, the 50% growth inhibitory concentration (GI50) in experiment [1] came out at 5240 nM; with COLO 205, 4300 nM; in the experiment with DU-145, 3280 nM; in the experiment on EKVX, 2760 nM; in the experiment on KM12, 4340 nM; in the experiment with MDA-MB-468, 3060 nM. The GI50 in the experiment on NCI-H460 was found to be 1850 nM; in the experiment on NCI-H522 it was 3300 nM; in the experiment on SN12C, 2780 nM; in the experiment with SNB-75 it was 1780 nM; in the experiment on U251 it was 2180 nM.

`O=C(NN=Cc1ccccc1O)c1ccc2[nH]c(-c3ccc(Cl)cc3)nc2c1` [8o, 2-(4-Chlorophenyl)-N'-(2-hydroxybenzylidene)-1H-benzo[d]imidazole-5-carbohydrazide]: the inhibition at 10 µM against VEGFR-2 is 22.3 ± 1.95%; in experiment [1] (setting [2]), above 100%; in experiment [1] (setting [3]), above 100%; with DU-145, above 100%; with EKVX it was 67.2%; with HOP-92, above 100%. Also, the inhibition at 10 µM was 85.4% with KM12; above 100% with MDA-MB-468; above 100% in the experiment on NCI-H460; above 100% in the experiment on NCI-H522; 59.4% in the experiment on SN12C; above 100% in the experiment on SNB-75. Moreover, the inhibition at 10 µM with U251 is above 100%. For the same compound, the GI50 in experiment [1] is 5440 nM; with COLO 205, 890 nM; in the experiment on DU-145 it was 1360 nM; with EKVX it was 9310 nM; in the experiment on HOP-92 (HOP-92, Non-small cell lung cancer, five-dose) it was above 38800 nM; with KM12 it was 1240 nM. In addition, the GI50 with MDA-MB-468 was 1510 nM; in the experiment with NCI-H460, 250 nM; with NCI-H522 it was 260 nM; with SN12C, 3410 nM; in the experiment with SNB-75, 740 nM; in the experiment on U251, 830 nM.

With `COc1ccc(C=NNC(=O)c2ccc3[nH]c(-c4ccc(Cl)cc4)nc3c2)cc1O` [8s, 2-(4-Chlorophenyl)-N'-(3-hydroxy-4-methoxybenzylidene)-1H-benzo[d]imidazole-5-carbohydrazide], the inhibition at 10 µM is 26.7 ± 1.83% against VEGFR-2; 49.5% in experiment [1] (setting [2]); 49.5% in [1] (setting [3]); 16.2% in the experiment on DU-145; 37% with EKVX; below 5% in the experiment on HOP-92. Further, the inhibition at 10 µM in the experiment with KM12 was determined as 68.4%; in the experiment with MDA-MB-468, 88.7%; in the experiment on NCI-H460 it was 63.8%; in the experiment with NCI-H522 it was 30.9%; with SN12C, 31.3%; with SNB-75, 6.41%. In the experiment on U251, the inhibition at 10 µM came out at 75.2%.

With `COc1ccc(OC)c(C=NNC(=O)c2ccc3[nH]c(-c4ccccc4)nc3c2)c1` [8f, N'-(2,5-Dimethoxybenzylidene)-2-phenyl-1H-benzo[d]imidazole-5-carbohydrazide], the inhibition at 10 µM against VEGFR-2 was determined as 58.3 ± 2.98%; in experiment [1] (setting [2]) it was 33.7%; in experiment [1] (setting [3]), 33.7%; in the experiment on DU-145, 18.4%; in the experiment with EKVX it was 22.7%; in the experiment on HOP-92, 7.1%. Further, the inhibition at 10 µM was 30.5% with KM12; 24.7% with MDA-MB-468; 15.8% with NCI-H460; 37.8% in the experiment with NCI-H522; 35.2% in the experiment with SN12C; below 5% in the experiment on SNB-75. Besides, in the experiment with U251, the inhibition at 10 µM worked out at 20.7%.

As for `COc1cc(C=NNC(=O)c2ccc3[nH]c(-c4ccccc4)nc3c2)cc(OC)c1OC` [8g, 2-Phenyl-N'-(3,4,5-trimethoxybenzylidene)-1H-benzo[d]imidazole-5-carbohydrazide], the inhibition at 10 µM on VEGFR-2 is 47.9 ± 3.53%; in experiment [1] (setting [2]), 36%; in experiment [1] (setting [3]), 36%; in the experiment with DU-145, 17.1%; in the experiment with EKVX, 12.2%; with HOP-92, below 5%. Also, the inhibition at 10 µM is 36.4% in the experiment with KM12; 39.2% in the experiment on MDA-MB-468; 56.3% with NCI-H460; 50.7% in the experiment on NCI-H522; 32.2% in the experiment with SN12C; below 5% in the experiment on SNB-75. Also, the inhibition at 10 µM in the experiment with U251 was 42.3%.
